Values quoted from earlier work as cited in patent publication US5741892A, “Pentapeptides as antitumor agents” (Basf Aktiengesellschaft, priority 1996, dated 1998).

Experiments:
[1] = system: tubulin
[2] = system: four different human lymphoma cell lines
[3] = system: P388 lymphocytic leukemia (PS system) cell line
[4] = synthetic Dolastatin 10

**Q.** For Dolastatin 15, which “inhibition of tubulin polymerization” value [1] is on record?
**A.** effectively inhibit

**Q.** And the “inhibition of growth of lymphoma cell lines” value [2]?
**A.** effectively inhibit

**Q.** And the “inhibition of cell growth” value [3]?
**A.** inhibits the growth

**Q.** For Dolastatin 10, which “solubility in aqueous systems” value [4] is on record?
**A.** poor solubility in aqueous systems

**Q.** What about the “inhibition of tubulin polymerization” value [1] of the same substance?
**A.** effectively inhibit

**Q.** And the “inhibition of growth of lymphoma cell lines” value [2]?
**A.** effectively inhibit
